Assay results from patent US10544147B2, “Purine inhibitors of human phosphatidylinositol 3-kinase delta” (MERCK SHARP & DOHME CORP., priority 2016, dated 2020).

What was measured:
[1] = biological target: PI3Kdelta (Homo sapiens (Human), UniProt O00329); assay: HTRF PI3K biochemical assay, delta isoform; conditions: 0.3 nM enzyme, 100 uM ATP, 50 uM PIP2; form screened (neutral or TFA salt)
Description: HTRF PI3K Biochemical Assay to Measure Intrinsic Potency of Compound Inhibitors
This loss of signal is nonlinear with respect to both increasing product and time. This non-linear detection will impact accuracy of IC50 calculations; therefore, there is a need for a correction factor to obtain more accurate IC50 values. This correction is derived from a PIP3 standard curve run in a separate assay plate. All data were calculated using the ratio of acceptor (APC) to donor (Europium) fluorescence in each well of the assay plate. […] An IC50 was then calculated fitting the % inhibition data to the equation: % inhibition=min+(Max−min)/1+([inhibitor]/IC50)^n) where min is the % inhibition with inhibitor, max is the signal in DMSO control, and n is the Hill slope.
The biological data was collected using the methodology described above.

[2] = biological target: PI3Kalpha (Homo sapiens (Human), UniProt P42336); assay: HTRF PI3K biochemical assay, alpha isoform (selectivity versus delta); conditions: ratio PI3K-alpha IC50 value/PI3K-delta IC50 value
Chain of PI3Kalpha (P42336 whole entry, canonical isoform): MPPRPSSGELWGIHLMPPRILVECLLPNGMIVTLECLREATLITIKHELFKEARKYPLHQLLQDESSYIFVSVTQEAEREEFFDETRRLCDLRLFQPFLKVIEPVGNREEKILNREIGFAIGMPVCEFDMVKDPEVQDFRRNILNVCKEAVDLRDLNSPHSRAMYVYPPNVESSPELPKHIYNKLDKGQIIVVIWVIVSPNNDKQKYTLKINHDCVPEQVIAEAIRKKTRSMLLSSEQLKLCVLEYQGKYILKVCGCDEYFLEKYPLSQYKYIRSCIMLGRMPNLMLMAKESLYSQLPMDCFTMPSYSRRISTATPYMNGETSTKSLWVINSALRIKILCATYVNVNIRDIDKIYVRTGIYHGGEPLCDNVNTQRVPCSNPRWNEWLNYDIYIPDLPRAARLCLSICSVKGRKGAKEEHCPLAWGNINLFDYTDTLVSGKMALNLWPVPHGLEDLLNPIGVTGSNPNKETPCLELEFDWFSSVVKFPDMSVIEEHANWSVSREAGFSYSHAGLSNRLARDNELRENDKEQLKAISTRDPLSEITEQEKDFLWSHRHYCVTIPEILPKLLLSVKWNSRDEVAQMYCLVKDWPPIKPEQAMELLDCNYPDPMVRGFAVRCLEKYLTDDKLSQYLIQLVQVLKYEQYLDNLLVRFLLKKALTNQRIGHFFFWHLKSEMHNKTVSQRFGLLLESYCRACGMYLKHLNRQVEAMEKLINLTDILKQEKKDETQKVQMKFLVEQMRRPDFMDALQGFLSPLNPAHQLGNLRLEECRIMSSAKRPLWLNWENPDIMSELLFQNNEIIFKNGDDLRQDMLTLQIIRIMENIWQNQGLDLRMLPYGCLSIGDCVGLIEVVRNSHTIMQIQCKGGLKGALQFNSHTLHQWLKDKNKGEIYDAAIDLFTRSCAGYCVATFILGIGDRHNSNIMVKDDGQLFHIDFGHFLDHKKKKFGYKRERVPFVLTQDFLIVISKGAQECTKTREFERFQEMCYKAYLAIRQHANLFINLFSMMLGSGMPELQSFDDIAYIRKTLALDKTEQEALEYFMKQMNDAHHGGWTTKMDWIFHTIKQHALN
Chain of PI3Kalpha (P27986 whole entry partner, canonical isoform): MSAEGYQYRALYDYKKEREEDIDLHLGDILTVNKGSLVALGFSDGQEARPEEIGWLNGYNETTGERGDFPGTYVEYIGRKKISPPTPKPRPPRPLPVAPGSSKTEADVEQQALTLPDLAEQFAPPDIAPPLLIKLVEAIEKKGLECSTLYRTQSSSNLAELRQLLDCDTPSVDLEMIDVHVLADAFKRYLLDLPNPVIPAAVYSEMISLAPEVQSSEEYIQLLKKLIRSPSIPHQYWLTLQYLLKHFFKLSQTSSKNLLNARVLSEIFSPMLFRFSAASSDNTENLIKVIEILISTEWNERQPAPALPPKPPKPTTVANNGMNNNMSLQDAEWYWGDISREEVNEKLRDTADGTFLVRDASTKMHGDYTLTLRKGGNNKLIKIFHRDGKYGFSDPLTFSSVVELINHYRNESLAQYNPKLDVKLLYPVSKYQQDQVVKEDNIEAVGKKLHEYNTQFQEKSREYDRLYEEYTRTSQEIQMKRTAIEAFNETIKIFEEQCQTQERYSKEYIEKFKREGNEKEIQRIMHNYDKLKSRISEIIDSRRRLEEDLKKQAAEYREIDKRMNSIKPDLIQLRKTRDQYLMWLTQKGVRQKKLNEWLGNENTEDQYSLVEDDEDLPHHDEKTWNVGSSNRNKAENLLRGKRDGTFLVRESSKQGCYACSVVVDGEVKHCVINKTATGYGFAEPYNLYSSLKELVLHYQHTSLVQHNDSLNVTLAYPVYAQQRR

Chain of PI3Kdelta (O00329 whole entry, canonical isoform): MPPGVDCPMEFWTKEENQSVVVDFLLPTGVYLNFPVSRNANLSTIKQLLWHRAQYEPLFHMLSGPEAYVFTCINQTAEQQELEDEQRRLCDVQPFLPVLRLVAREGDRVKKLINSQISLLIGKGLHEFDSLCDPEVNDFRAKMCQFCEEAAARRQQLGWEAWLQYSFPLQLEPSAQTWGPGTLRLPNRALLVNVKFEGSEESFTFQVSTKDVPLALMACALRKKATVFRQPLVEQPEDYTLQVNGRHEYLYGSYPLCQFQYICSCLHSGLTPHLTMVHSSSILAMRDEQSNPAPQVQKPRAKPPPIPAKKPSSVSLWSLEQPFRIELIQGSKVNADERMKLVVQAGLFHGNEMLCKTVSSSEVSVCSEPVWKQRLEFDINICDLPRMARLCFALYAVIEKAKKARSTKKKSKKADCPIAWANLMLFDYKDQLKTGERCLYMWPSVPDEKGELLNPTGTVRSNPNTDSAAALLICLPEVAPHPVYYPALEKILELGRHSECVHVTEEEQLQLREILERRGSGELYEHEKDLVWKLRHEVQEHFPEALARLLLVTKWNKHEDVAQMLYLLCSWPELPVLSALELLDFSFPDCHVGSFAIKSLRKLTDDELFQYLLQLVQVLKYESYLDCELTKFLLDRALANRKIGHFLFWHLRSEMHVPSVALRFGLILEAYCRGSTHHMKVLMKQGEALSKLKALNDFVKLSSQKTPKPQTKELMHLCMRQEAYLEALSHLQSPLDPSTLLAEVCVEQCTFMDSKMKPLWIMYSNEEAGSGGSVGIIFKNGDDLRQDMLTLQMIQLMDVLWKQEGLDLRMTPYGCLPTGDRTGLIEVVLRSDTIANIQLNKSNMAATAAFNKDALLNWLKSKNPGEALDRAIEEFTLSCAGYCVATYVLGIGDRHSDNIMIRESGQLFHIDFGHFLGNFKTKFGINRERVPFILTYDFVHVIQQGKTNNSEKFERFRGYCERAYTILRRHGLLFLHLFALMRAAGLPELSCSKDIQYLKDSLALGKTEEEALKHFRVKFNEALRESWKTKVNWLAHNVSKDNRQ
Chain of PI3Kdelta (P27986 whole entry partner, canonical isoform): as the sequence (P27986 whole entry partner, canonical isoform) above

IC50 [1] | Relative Selectivity versus PI3Kalpha [2] | SMILES
788 nM | 5 | Cc1ncc(-c2nc3c(-c4ccc5c(c4)C(C)(NCC(C)(F)F)C(=O)N5)ncnc3n2C)cn1 (single isomer, unassigned) [Compound 2-69, (R or S)-3-((2,2-difluoropropyl)amino)-3-methyl-5-(9-methyl-8-(2-methylpyrimidin-5-yl)-9H-purin-6-yl)indolin-2-one]
658 nM | >10 | CCn1c(C(F)F)nc2c(-c3ccc4c(c3)C(C)(Cc3ccccc3)C(=O)N4)ncnc21 (single isomer, unassigned) [Compound 1-24, (R or S)-benzyl-5-(8-(difluoromethyl)-9-ethyl-9H-purin-6-yl)-3-methylindolin-2-one]
6 nM | >10 | CCn1c(-c2cnc(C)nc2)nc2c(-c3ccc4c(c3)C(C)(CC(C)C)NS4(=O)=O)ncnc21 (single isomer, unassigned) [Compound 4-5, (R or S)-9-ethyl-6-[3-methyl-3-(2-methylpropyl)-1,1-dioxido-2,3-dihydro-1,2-benzisothiazol-5-yl]-8-(2-methylpyrimidin-5-yl)-9H-purine]
2 nM | >10 | Cc1ncc(-c2nc3c(-c4cnc5c(c4)C(C)(NCC(C)(C)F)C(=O)N5)ncnc3n2C)cn1 (single isomer, unassigned) [Compound 2-59, (S or R)-5-(9-methyl-8-(2-methylpyrimidin-5-yl)-9H-purin-6-yl)-3-((2-fluoro-2-methylpropyl)amino)-3-methyl-1H-pyrrolo[2,3-b]pyridin-2(3H)-one]
6 nM | >10 | CCn1c(-c2cnc(C)nc2)nc2c(-c3ccc4c(c3)C(C)(N3CC(C)(F)C3)C(=O)N4)ncnc21 (single isomer, unassigned) [Compound 2-64, (R or S)-5-(9-ethyl-8-(2-methylpyrimidin-5-yl)-9H-purin-6-yl)-3-(3-fluoro-3-methylazetidin-1-yl)-3-methylindolin-2-one]
5 nM | >10 | CCn1c(-c2cnc(C)nc2)nc2c(-c3ccc4c(c3)C(C)(C3CCOCC3)C(=O)N4)ncnc21 (single isomer, unassigned) [Compound 1-35, 5-(9-Ethyl-8-(2-methylpyrimidin-5-yl)-9H-purin-6-yl)-3-methyl-3-(tetrahydro-2H-pyran-4-yl)indolin-2-one]
55 nM | >10 | CCn1c(-c2cnc(C)nc2)nc2c(-c3ccc4c(c3)C3(CCCN3S(C)(=O)=O)C(=O)N4)ncnc21 (single isomer, unassigned) [Compound 3-20, (R or S)-5-(9-ethyl-8-(2-methylpyrimidin-5-yl)-9H-purin-6-yl)-1′-(methylsulfonyl)spiro[indoline-3,2′-pyrrolidin]-2-one]
6 nM | >10 | CCn1c(-c2cnc(C)nc2)nc2c(-c3ccc4c(c3)C(C)(N3C[C@@H](F)[C@H](F)C3)C(=O)N4)ncnc21 (single isomer, unassigned) [Compound 2-62, 3-(R or S)-((3R,4R)-3,4-difluoropyrrolidin-1-yl)-5-(9-ethyl-8-(2-methylpyrimidin-5-yl)-9H-purin-6-yl)-3-methylindolin-2-one]
8 nM | >10 | CCn1c(-c2cnc(C)nc2)nc2c(-c3ccc4c(c3)C(C)(N3CC5(CCO5)C3)C(=O)N4)ncnc21 (single isomer, unassigned) [Compound 2-7, (R or S)-5-[9-ethyl-8-(2-methylpyrimidin-5-yl)-9H-purin-6-yl]-3-methyl-3-(1-oxa-6-azaspiro[3.3]hept-6-yl)-1,3-dihydro-2H-indol-2-one]
7 nM | >10 | CCn1c(-c2cnc(C)nc2)nc2c(-c3ccc4c(c3)C(C)(OCC3CC3)C(=O)N4)ncnc21 (single isomer, unassigned) [Compound 2-58, (R or S)-3-(cyclopropylmethoxy)-5-(9-ethyl-8-(2-methylpyrimidin-5-yl)-9H-purin-6-yl)-3-methylindolin-2-one]
26 nM | >10 | CCn1c(-c2cnc(C)nc2)nc2c(-c3ccc4c(c3)C3(CCN(C(=O)C5CC5)C3)C(=O)N4)ncnc21 (single isomer, unassigned) [Compound 3-6, (R or S)-1′-(cyclopropanecarbonyl)-5-(9-ethyl-8-(2-methylpyrimidin-5-yl)-9H-purin-6-yl)spiro[indoline-3,3′-pyrrolidin]-2-one]
15 nM | >10 | CCn1c(-c2cnc(C)nc2)nc2c(-c3ccc4c(c3)C(C)(N3CC(OC)C3)C(=O)N4)ncnc21 (single isomer, unassigned) [Compound 2-79, (R or S)-5-(9-ethyl-8-(2-methylpyrimidin-5-yl)-9H-purin-6-yl)-3-(3-methoxyazetidin-1-yl)-3-methylindolin-2-one]
4 nM | >10 | Cc1ncc(-c2nc3c(-c4ccc5c(c4)C(C)(NCC(C)(F)F)C(=O)N5)ncnc3n2C)cn1 (single isomer, unassigned) [Compound 2-70, (R or S)-3-((2,2-difluoropropyl)amino)-3-methyl-5-(9-methyl-8-(2-methylpyrimidin-5-yl)-9H-purin-6-yl)indolin-2-one]
99 nM | >10 | CCN1CCCC12C(=O)Nc1ccc(-c3ncnc4c3nc(-c3cnc(C)nc3)n4C)cc12 (single isomer, unassigned) [Compound 3-28, (R or S)-1′-ethyl-5-(9-methyl-8-(2-methylpyrimidin-5-yl)-9H-purin-6-yl)spiro[indoline-3,2′-pyrrolidin]-2-one]
3 nM | >10 | CCn1c(-c2cnc(C)nc2)nc2c(-c3ccc4c(c3)C(C)(OCC(C)(C)F)C(=O)N4)ncnc21 (single isomer, unassigned) [Compound 2-56, (R or S)-5-(9-ethyl-8-(2-methylpyrimidin-5-yl)-9H-purin-6-yl)-3-(2-fluoro-2-methylpropoxy)-3-methylindolin-2-one]
3 nM | >10 | CCn1c(-c2cnc(C)nc2)nc2c(-c3ccc4c(c3)C3(CCCN3C(=O)C3CC3)C(=O)N4C(C)C)ncnc21 (single isomer, unassigned) [Compound 3-10, (R or S)-1′-(cyclopropanecarbonyl)-5-(9-ethyl-8-(2-methylpyrimidin-5-yl)-9H-purin-6-yl)-1-isopropylspiro[indoline-3,2′-pyrrolidin]-2-one]
7 nM | >10 | CCn1c(-c2cnc(C)nc2)nc2c(-c3ccc4c(c3)C(C)(N3CC(C)(O)C3)C(=O)N4)ncnc21 (single isomer, unassigned) [Compound 2-80, (R or S)-5-(9-ethyl-8-(2-methylpyrimidin-5-yl)-9H-purin-6-yl)-3-(3-hydroxy-3-methylazetidin-1-yl)-3-methylindolin-2-one]
26 nM | >10 | CCn1c(-c2cnc(C)nc2)nc2c(-c3ccc4c(c3)C(C)(N3CC(C)(O)C3)C(=O)N4)ncnc21 (single isomer, unassigned) [Compound 2-81, (R or S)-5-(9-ethyl-8-(2-methylpyrimidin-5-yl)-9H-purin-6-yl)-3-(3-hydroxy-3-methylazetidin-1-yl)-3-methylindolin-2-one]
17 nM | >10 | CCn1c(-c2cnc(C)nc2)nc2c(-c3ccc4c(c3)C(C)(CC3CC3)C(=O)N4C)ncnc21 (single isomer, unassigned) [Compound 1-9, 3-(Cyclopropylmethyl)-5-(9-ethyl-8-(2-methylpyrimidin-5-yl)-9H-purin-6-yl)-1,3-dimethylindolin-2-one]
479 nM | >10 | CCn1c(-c2cnc(C)nc2)nc2c(-c3ccc4c(c3)C(C)(NC(C)C)C(=O)N4)ncnc21 (single isomer, unassigned) [Compound 2-31, (R or S)-5-[9-ethyl-8-(2-methylpyrimidin-5-yl)-9H-purin-6-yl]-3-methyl-3-[(1-methylethyl)amino]-1,3-dihydro-2H-indol-2-one]
45 nM | >10 | Cc1ncc(-c2nc3c(-c4ccc5c(c4)C4(CCCN4C(C)C)C(=O)N5)ncnc3n2C)cn1 (single isomer, unassigned) [Compound 3-13, (R or S)-1′-isopropyl-5-(9-methyl-8-(2-methylpyrimidin-5-yl)-9H-purin-6-yl)spiro[indoline-3,2′-pyrrolidin]-2-one]
145 nM | 4 | CCn1c(-c2cnc(C)nc2)nc2c(-c3ccc4c(c3)C(C)(N3C[C@@H](C)O[C@@H](C)C3)C(=O)N4)ncnc21 (single isomer, unassigned) [Compound 2-3, (R or S)-3-[(cis)-2,6-dimethylmorpholin-4-yl]-5-[9-ethyl-8-(2-methylpyrimidin-5-yl)-9H-purin-6-yl]-3-methyl-1,3-dihydro-2H-indol-2-one]
2 nM | >10 | Cc1ncc(-c2nc3c(-c4ccc5c(c4)C(C)(NCC(C)(C)F)C(=O)N5)ncnc3n2C)cn1 (single isomer, unassigned) [Compound 2-68, (R or S)-3-((2-fluoro-2-methylpropyl)amino)-3-methyl-5-(9-methyl-8-(2-methylpyrimidin-5-yl)-9H-purin-6-yl)indolin-2-one]
